In patent US10092565B2, “Treatment of proliferative disorders with a chemiluminescent agent” (Semorex Technologies Ltd., priority 2011, dated 2018):
Like-named read-outs stand apart in the source and are kept apart here.

Tests used:
[1] = test system: CHRF line acute myeloid leukemia (AML) cells; test: XTT growth inhibition of CHRF AML cells, 72 hours; assay type: cell-based; conditions: for Growth inhibition (%): 80 µM
Experimental: Cells were grown in full culture medium for 24 hours. The medium was then removed and cells were washed with PBS. The PBS was then replaced by fresh medium containing different concentrations of SEM-011 in a range of 50 to 800 μM, or with SEM-011-free medium as a control. […] Growth inhibition was evaluated by calculating the percent decrease in absorbance in SEM-011-treated test cultures as compared to control cultures.

[2] = test system: PC-3 prostate cancer cells; test: PC-3 prostate cancer tumors in nu/nu mice, tumor volume / Progression Index; assay type: in vivo
Experimental: Tumor volumes were quantified (in cm^3) at the indicated times by using the formula: tumor volume=(width^2×length)/2. Tumor volume index or Progression Index refers to the ratio of a tumor volume at an indicated time to the first volume measured for that tumor.
Nu/nu nude mice were inoculated on their right flank with 2×10^6 PC-3 prostate cancer cells in a Matrigel mixture. Following inoculation, two mice were treated with escalating concentrations of L-012 (also referred to herein as “SEM-007”) by intraperitoneal injections twice per week, according to the following schedule:
As a control, two mice were inoculated with PC-3 cells without receiving L-012.
The volume of the tumor was then monitored.
The tumor volume was measured periodically beginning on day 25 post-inoculation, and the weight loss over the course of the experiment was also measured.
Each treatment group and each control group consisted of four (and sometimes five) mice.
In another set of experiments, Nu/nu male mice, 1.5-month old, were injected subcutaneously on the right flank with PC-3 cells (2.0×10^6 cells/mouse). On days 4, 8, 12, 15, 19, 36, 42 and […] (after the beginning of treatment), mice were treated with either vehicle (PBS) or 43 mg/Kg L012 by intraperitoneal injections. From the beginning of treatment, tumor dimensions were measured and tumor volume calculated. Progression Index was calculated as the ratio of tumor volume growth at a particular time point to the tumor volume at the initiation of treatment.
(§1) Control animals received an intraperitoneal injection of PBS.
The tumor volume was measured periodically beginning on day 35 post-inoculation.
Nu/nu male mice, 1.5-month old, were injected subcutaneously on the right flank with PC-3 cells (2.0×10^6 cells/mouse). On days 4, 8, 12, 15, 19, 36, 42 and 46 (after beginning of treatment), mice were treated with either vehicle (PBS) or 43 mg/Kg SEM 009, by intravenous injection, as indicated.
From the beginning of treatment, tumor dimensions were measured and tumor volume calculated. Progression Index was calculated as the ratio of tumor volume rowth at a particular time point to the tumor volume at the initiation of treatment.

[3] = for effect on decrease in body weight following inoculation with tumor cells: FIG. 5
Description: FIG. 5 is a bar graph showing the change in body weight of nu/nu mice 28 and 77 days after inoculation with PC-3 cells, following intraperitoneal injection of L-012 once per week (L012 l/w) or twice per week (L012 2/w) during days 35-56 after inoculation, and without L-012 administration (Control);
Nu/nu mice were inoculated with PC-3 cells as described in Example 1, and on day 35 post-inoculation, the animals were divided into three groups.
as §1
A second group received one weekly injection of 41.3 mg/kg L-012 for 3 weeks, i.e., on days 35, 42 and 49 post-inoculation. A third group received two weekly injections of 41.3 mg/kg L-012 for 3 weeks, i.e., on days 35, 36, 42, 47, 49 and 56.

[4] = test system: PC-3 cells; test: Alamar Blue growth inhibition of PC-3 cells; assay type: cell-based, human; conditions: for IC50: read-out: Est IC50
Experimental: In additional sets of experiments. […] At the end of the culture period, the level of mitochondrial metabolism was measured (using Alamar Blue assay) and the activity of the chemiluminescent agents was determined by percents of growth inhibition; the inhibition of growth in treated cell cultures compared to non-treated, control cells.

[5] = XTT growth inhibition IC50 in a panel of cancer cell lines, 72 hours; assay type: cell-based; conditions: span over all tested cell lines, FIG. 7, read-out: IC50 (concentration which resulted in 50% growth inhibition)
Experimental: (§2) The compound SEM-011 was tested for anti-cancer activity, using the PC-3 prostate cancer cell line. Cells were grown in full culture medium for 24 hours. The medium was then removed and cells were washed with PBS. The PBS was then replaced by fresh medium containing different concentrations of SEM-011 in a range of 50 to 800 μM, or with SEM-011-free medium as a control. Cells were then cultured for 24 hours, after which time the level of cellular metabolism in the cultures was measured using a standard XTT (2,3-bis-(2-methoxy-4-nitro-5-sulfophenyl)-2H-tetrazolium-5-carboxanilide) assay. Growth inhibition was evaluated by calculating the percent decrease in absorbance in SEM-011-treated test cultures as compared to control cultures.
(§3) The compounds SEM-007 (also referred to herein and in the art as “L-012”) and SEM-009 (also referred to in the art as “L-002”) were tested for anti-cancer activity using a variety of cell lines. The cell lines used were OvCar-3 ovarian cancer cells, SKOV-3 ovarian cancer cells, HepG2 liver cancer cells, PC-3 prostate cancer cells, and CHRF acute myeloid leukemia cells.

[6] = test system: OvCar-3 ovarian cancer cells, SKOV-3 ovarian cancer cells, HepG2 liver cancer cells, PC-3 prostate cancer cells, CHRF acute myeloid leukemia cells; test: as above; assay type: cell-based; conditions: all tested cell lines, FIG. 7
Experimental: as §2, §3

[7] = test system: PC-3 prostate cancer cell line; test: XTT growth inhibition of PC-3 cells, 24 hours; assay type: cell-based, human
Experimental: as §2

[8] = Homo sapiens, PC-3, 200 uM, 24 hrs
[9] = Homo sapiens, PC-3, 200 uM, 48 hrs
[10] = Homo sapiens, PC-3, 400 uM, 24 hrs
[11] = Homo sapiens, PC-3, 400 uM, 48 hrs
[12] = Homo sapiens, PC-3, 800 uM, 24 hrs
[13] = Homo sapiens, PC-3, 800 uM, 48 hrs
[14] = Homo sapiens, PC-3, 200 uM, 72 hrs
[15] = Homo sapiens, PC-3, 400 uM, 72 hrs
[16] = Homo sapiens, PC-3, 800 uM, 72 hrs

C[n+]1c2ccccc2c(-c2c3ccccc3[n+](C)c3ccccc23)c2ccccc21 [Lucigenin]
Growth inhibition (%) [1]: 33%

Nc1cccc2c(=O)[nH][nH]c(=O)c12 [Luminol]
inhibition at 80 µM ([1]; 72 h, read-out: Growth inhibition (%)): 40%

Nc1c(-c2ccccc2)nc(Cl)c2c(=O)[nH][nH]c(=O)c12 [SEM-007, L-012]
reduction of tumor volume in comparison with the PBS-treated control ([2]; 41.3 mg/kg intraperitoneal on days 25, 28, 32, 35, at day 65, FIG. 3A): 54% | reduction of tumor volume in comparison with the PBS-treated control ([2]; 41.3 mg/kg once per week for 3 weeks, at day 73, FIGS. 4A, 4B): 45% | reduction of tumor volume in comparison with the PBS-treated control ([2]; 41.3 mg/kg twice per week for 3 weeks, at day 73, FIGS. 4A, 4B): 95% | Progression Index compared to non-treated mice ([2]; 43 mg/Kg intraperitoneal, FIG. 3B): sharp increase in the Progression Index | average tumor volume progression after administration ([2]; escalating L-012 41.3, 66.5, 100.4 mg/kg intraperitoneal on days 32, 39, 43, FIG. 2): halted tumor progression, with no increase in average tumor volume | tumor volume reduction (summary of FIGS. 2-4B) ([2]; prostate cancer cells injected into mice, dose dependent): up to 95% | systemic toxicity or morbidity in tumor-bearing mice ([3]; 41.3 mg/kg once or twice per week): does not result in systemic toxicity or morbidity | effect on decrease in body weight following inoculation with tumor cells ([3]; 41.3 mg/kg once per week): partially inhibited the decrease in body weight | effect on decrease in body weight following inoculation with tumor cells ([3]; 41.3 mg/kg twice per week): completely reversed the decrease in body weight | % growth inhibition ([4]; 25 uM, 48 hrs): 27% | % growth inhibition ([4]; 25 uM, 73 hrs): 11% | % growth inhibition ([4]; 50 uM, 24 hrs): 46.46% | % growth inhibition ([4]; 50 uM, 48 hrs): 31% | % growth inhibition ([4]; 50 uM, 73 hrs): 20% | % growth inhibition ([4]; 100 uM, 24 hrs): 65.25% | % growth inhibition ([4]; 100 uM, 48 hrs): 38% | % growth inhibition ([4]; 100 uM, 73 hrs): 38% | % growth inhibition ([4]; 200 uM, 24 hrs): 66.84% | % growth inhibition ([4]; 200 uM, 48 hrs): 58% | % growth inhibition ([4]; 200 uM, 73 hrs): 58.0% | % growth inhibition ([4]; 400 uM, 24 hrs): 77.73% | % growth inhibition ([4]; 400 uM, 48 hrs): 70% | % growth inhibition ([4]; 400 uM, 73 hrs): 76% | % growth inhibition ([4]; 800 uM, 24 hrs): 73.80% | % growth inhibition ([4]; 800 uM, 48 hrs): 78% | % growth inhibition ([4]; 800 uM, 73 hrs): 90% | IC50 ([4]; 48 hrs): 160 µM | IC50 ([4]; 73 hrs): 140 µM

O=c1[nH][nH]c(=O)c2c(O)c(-c3ccccc3)ncc12 [SEM-009, 8-hydroxy-7-phenyl-2,3-dihydropyrido[4,3-d]pyridazine-1,4-dione]
Progression Index compared to non-treated mice ([2]; 43 mg/Kg SEM 009 by intravenous injection, FIG. 9): sharp decrease in the Progression Index | IC50 [5]: 40 to 200 µM | IC50 compared with SEM-007 [6]: lower than that of SEM-007 in all of the tested cell lines | inhibition at 50 µM ([4]; Homo sapiens, PC-3, 50 uM, 24 hrs): -27.2% | inhibition at 50 µM ([4]; Homo sapiens, PC-3, 50 uM, 48 hrs): 26.6% | inhibition at 50 µM ([4]; Homo sapiens, PC-3, 50 uM, 73 hrs): 21.3% | inhibition at 100 µM ([4]; Homo sapiens, PC-3, 100 uM, 24 hrs): 81.4% | inhibition at 100 µM ([4]; Homo sapiens, PC-3, 100 uM, 48 hrs): 49.2% | inhibition at 100 µM ([4]; Homo sapiens, PC-3, 100 uM, 73 hrs): 47.8% | inhibition at 200 µM [4, 8]: 84.2% | inhibition at 200 µM [4, 9]: 80.3% | inhibition at 200 µM ([4]; Homo sapiens, PC-3, 200 uM, 73 hrs): 80.5% | inhibition at 400 µM [4, 10]: 90.6% | inhibition at 400 µM [4, 11]: 83.7% | inhibition at 400 µM ([4]; Homo sapiens, PC-3, 400 uM, 73 hrs): 85.6% | inhibition at 800 µM [4, 12]: 89.1% | inhibition at 800 µM [4, 13]: 85.7% | inhibition at 800 µM ([4]; Homo sapiens, PC-3, 800 uM, 73 hrs): 89% | IC50 ([4]; Homo sapiens, PC-3, 48 hrs): 100 µM | IC50 ([4]; Homo sapiens, PC-3, 73 hrs): 110 µM

NNc1nc(-c2ccccc2)c(O)c2c(=O)[nH][nH]c(=O)c12 [SEM-011, 5-hydrazinyl-8-hydroxy-7-phenyl-2,3-dihydropyrido[4,3-d]pyridazine-1,4-dione]
inhibition at 50 µM ([7]; Homo sapiens, PC-3, 50 μM): 50% | inhibition at 100 µM ([7]; Homo sapiens, PC-3, 100 μM): 87% | inhibition at 200 µM ([7]; Homo sapiens, PC-3, 200 μM): 96% | inhibition at 400 µM ([7]; Homo sapiens, PC-3, 400 μM): 96% | inhibition at 800 µM ([7]; Homo sapiens, PC-3, 800 μM): 96% | PC-3 cell growth inhibition in words ([7]; concentrations of 200 μM or more): almost completely inhibited PC-3 cell growth

O=c1[nH][nH]c(=O)c2c(O)c(-c3ccccc3Cl)ncc12 [SEM-013, 8-hydroxy-7-(2-chlorophenyl)-2,3-dihydropyrido[4,3-d]pyridazine-1,4-dione]
inhibition at 200 µM [4, 8]: 23.8% | inhibition at 200 µM [4, 9]: 22.3% | inhibition at 200 µM [4, 14]: 23.1% | inhibition at 400 µM [4, 10]: 30.1% | inhibition at 400 µM [4, 11]: 29.1% | inhibition at 400 µM [4, 15]: 41.7% | inhibition at 800 µM [4, 12]: 37.1% | inhibition at 800 µM [4, 13]: 55.5% | inhibition at 800 µM [4, 16]: 64.2%

O=c1[nH][nH]c(=O)c2c(O)c(-c3ccc(Cl)cc3)ncc12 [SEM-014, 8-hydroxy-7-(4-chlorophenyl)-2,3-dihydropyrido[4,3-d]pyridazine-1,4-dione]
inhibition at 200 µM [4, 8]: 51.6% | inhibition at 200 µM [4, 9]: 71.9% | inhibition at 200 µM [4, 14]: 68.2% | inhibition at 400 µM [4, 10]: 55.7% | inhibition at 400 µM [4, 11]: 70.5% | inhibition at 400 µM [4, 15]: 72.7% | inhibition at 800 µM [4, 12]: 54.3% | inhibition at 800 µM [4, 13]: 71.3% | inhibition at 800 µM [4, 16]: 76.1%

MCLA
Growth inhibition (%) [1]: 85%
